According to patent US20130157954A1, “METHODS FOR TREATMENT OR PROPHYLAXIS OF KIDNEY OR LIVER DYSFUNCTION” (NPS PHARMACEUTICALS, INC., priority 2010, published 2013):

Assay: Example 1: liver biomarkers (total bilirubin, ALT, AST, ALP) in short bowel syndrome patients, every four weeks for 24 weeks; also sorted by >5% change from baseline
Format: in vivo, Human
Details: for ALT (SGPT) change from baseline >5%, percent of patients / ALT (SGPT) change from baseline −5% <= and <=5%, number of patients / ALT (SGPT) change from baseline −5% <= and <=5%, percent of patients / AST (SGOT) change from baseline <−5%, number of patients / AST (SGOT) change from baseline <−5%, percent of patients / AST (SGOT) change from baseline >5%, number of patients / AST (SGOT) change from baseline >5%, percent of patients / AST (SGOT) change from baseline −5% <= and <=5%, number of patients / AST (SGOT) change from baseline −5% <= and <=5%, percent of patients / TOTAL BILIRUBIN change from baseline <−5%, number of patients / TOTAL BILIRUBIN change from baseline <−5%, percent of patients / TOTAL BILIRUBIN change from baseline >5%, number of patients / TOTAL BILIRUBIN change from baseline >5%, percent of patients / TOTAL BILIRUBIN change from baseline −5% <= and <=5%, number of patients / TOTAL BILIRUBIN change from baseline −5% <= and <=5%, percent of patients / ALKALINE PHOSPHATASE change from baseline <−5%, number of patients / ALKALINE PHOSPHATASE change from baseline <−5%, percent of patients / ALKALINE PHOSPHATASE change from baseline >5%, number of patients / ALKALINE PHOSPHATASE change from baseline >5%, percent of patients / ALKALINE PHOSPHATASE change from baseline −5% <= and <=5%, number of patients / ALKALINE PHOSPHATASE change from baseline −5% <= and <=5%, percent of patients / ALT (SGPT) change from baseline <−5%, number of patients / ALT (SGPT) change from baseline <−5%, percent of patients / ALT (SGPT) change from baseline >5%, number of patients: 0.1 mg/kg/day
Description: Human patients with short bowel syndrome were divided into three groups: a control group (16 total individuals) to receive placebo, an experimental group (35 total individuals) to receive teduglutide at 0.05 mg/kg/day throughout the study, and an experimental group (32 total individuals) to receive teduglutide at 0.1 mg/kg/day throughout the study. Patients were treated by subcutaneous injection of placebo or the appropriate dose of teduglutide. As individuals with short bowel syndrome are likely to experience associated liver and kidney disease, known biomarkers of liver and kidney function were monitored every four weeks, for 24 weeks. The liver biomarkers tested included total bilirubin, ALT and AST and ALP. The kidney biomarkers tested included urea nitrogen, creatinine and GFR. Before administration of placebo or teduglutide, diagnostic biomarker levels were tested to establish a baseline for each individual.
To visualize the effect of GLP-2 on the levels of the diagnostic biomarkers, the average change from baseline was calculated for the placebo and teduglutide treated groups for each visit after a baseline was established. The average change from baseline of each group is depicted in FIGS. 1-7. The numerical figures for each diagnostic biomarker at each time point are depicted in Table 1.
The efficacy of teduglutide in treating liver dysfunction was further tested by sorting the data into two groups: individuals with abnormal baseline values of liver diagnostic biomarkers; and individuals with normal baseline values of liver diagnostic biomarkers. The mean diagnostic biomarker change from baseline for these two groups is shown for ALT (FIGS. 5 and 6) and AST (FIGS. 7 and 8). […] These changes were significant when compared to baseline levels for the group, and when compared to placebo (see FIGS. 5 and 7).
The raw data for this sorting is reproduced in Table 2 below.

Question: Which results are given for `CC[C@H](C)[C@H](NC(=O)[C@H](Cc1ccccc1)NC(=O)[C@H](CC(=O)O)NC(=O)[C@H](CCCNC(=N)N)NC(=O)[C@H](C)NC(=O)[C@H](C)NC(=O)[C@H](CC(C)C)NC(=O)[C@H](CC(N)=O)NC(=O)[C@H](CC(=O)O)NC(=O)[C@H](CC(C)C)NC(=O)[C@@H](NC(=O)[C@@H](NC(=O)[C@H](CC(N)=O)NC(=O)[C@H](CCSC)NC(=O)[C@H](CCC(=O)O)NC(=O)[C@H](CC(=O)O)NC(=O)[C@H](CO)NC(=O)[C@H](Cc1ccccc1)NC(=O)[C@H](CO)NC(=O)CNC(=O)[C@H](CC(=O)O)NC(=O)CNC(=O)[C@@H](N)Cc1c[nH]cn1)[C@@H](C)O)[C@@H](C)CC)C(=O)N[C@@H](CC(N)=O)C(=O)N[C@@H](Cc1c[nH]c2ccccc12)C(=O)N[C@@H](CC(C)C)C(=O)N[C@H](C(=O)N[C@@H](CCC(N)=O)C(=O)N[C@H](C(=O)N[C@@H](CCCCN)C(=O)N[C@H](C(=O)N[C@H](C(=O)N[C@@H](CC(=O)O)C(=O)O)[C@@H](C)O)[C@@H](C)CC)[C@@H](C)O)[C@@H](C)CC` [teduglutide]?
Answer: ALT (SGPT) change from baseline >5%, percent of patients (week 12): (21.9%); ALT (SGPT) change from baseline −5% <= and <=5%, number of patients (week 12): 2; ALT (SGPT) change from baseline −5% <= and <=5%, percent of patients (week 12): (6.3%); AST (SGOT) change from baseline <−5%, number of patients (week 12): 15; AST (SGOT) change from baseline <−5%, percent of patients (week 12): (46.9%); AST (SGOT) change from baseline >5%, number of patients (week 12): 10; AST (SGOT) change from baseline >5%, percent of patients (week 12): (31.3%); AST (SGOT) change from baseline −5% <= and <=5%, number of patients (week 12): 3; AST (SGOT) change from baseline −5% <= and <=5%, percent of patients (week 12): (9.4%); TOTAL BILIRUBIN change from baseline <−5%, number of patients (week 12): 14; TOTAL BILIRUBIN change from baseline <−5%, percent of patients (week 12): (43.8%); TOTAL BILIRUBIN change from baseline >5%, number of patients (week 12): 9; TOTAL BILIRUBIN change from baseline >5%, percent of patients (week 12): (28.1%); TOTAL BILIRUBIN change from baseline −5% <= and <=5%, number of patients (week 12): 6; TOTAL BILIRUBIN change from baseline −5% <= and <=5%, percent of patients (week 12): (18.8%); ALKALINE PHOSPHATASE change from baseline <−5%, number of patients (week 16): 21; ALKALINE PHOSPHATASE change from baseline <−5%, percent of patients (week 16): (65.6%); ALKALINE PHOSPHATASE change from baseline >5%, number of patients (week 16): 7; ALKALINE PHOSPHATASE change from baseline >5%, percent of patients (week 16): (21.9%); ALKALINE PHOSPHATASE change from baseline −5% <= and <=5%, number of patients (week 16): 2; ALKALINE PHOSPHATASE change from baseline −5% <= and <=5%, percent of patients (week 16): (6.3%); ALT (SGPT) change from baseline <−5%, number of patients (week 16): 19; ALT (SGPT) change from baseline <−5%, percent of patients (week 16): (59.4%); ALT (SGPT) change from baseline >5%, number of patients (week 16): 9; ALT (SGPT) change from baseline >5%, percent of patients (week 16): (28.1%); ALT (SGPT) change from baseline −5% <= and <=5%, number of patients (week 16): 2; ALT (SGPT) change from baseline −5% <= and <=5%, percent of patients (week 16): (6.3%); AST (SGOT) change from baseline <−5%, number of patients (week 16): 18; AST (SGOT) change from baseline <−5%, percent of patients (week 16): (56.3%); AST (SGOT) change from baseline >5%, number of patients (week 16): 8; AST (SGOT) change from baseline >5%, percent of patients (week 16): (25.0%); AST (SGOT) change from baseline −5% <= and <=5%, number of patients (week 16): 3; AST (SGOT) change from baseline −5% <= and <=5%, percent of patients (week 16): (9.4%); TOTAL BILIRUBIN change from baseline <−5%, number of patients (week 16): 14; TOTAL BILIRUBIN change from baseline <−5%, percent of patients (week 16): (43.8%); TOTAL BILIRUBIN change from baseline >5%, number of patients (week 16): 6; TOTAL BILIRUBIN change from baseline >5%, percent of patients (week 16): (18.8%); TOTAL BILIRUBIN change from baseline −5% <= and <=5%, number of patients (week 16): 8; TOTAL BILIRUBIN change from baseline −5% <= and <=5%, percent of patients (week 16): (25.0%); ALKALINE PHOSPHATASE change from baseline <−5%, number of patients (week 20): 19; ALKALINE PHOSPHATASE change from baseline <−5%, percent of patients (week 20): (59.4%); ALKALINE PHOSPHATASE change from baseline >5%, number of patients (week 20): 9; ALKALINE PHOSPHATASE change from baseline >5%, percent of patients (week 20): (28.1%); ALKALINE PHOSPHATASE change from baseline −5% <= and <=5%, number of patients (week 20): 1; ALKALINE PHOSPHATASE change from baseline −5% <= and <=5%, percent of patients (week 20): (3.1%); ALT (SGPT) change from baseline <−5%, number of patients (week 20): 19; ALT (SGPT) change from baseline <−5%, percent of patients (week 20): (59.4%); ALT (SGPT) change from baseline >5%, number of patients (week 20): 8; ALT (SGPT) change from baseline >5%, percent of patients (week 20): (25.0%); ALT (SGPT) change from baseline −5% <= and <=5%, number of patients (week 20): 2; ALT (SGPT) change from baseline −5% <= and <=5%, percent of patients (week 20): (6.3%); AST (SGOT) change from baseline <−5%, number of patients (week 20): 16; AST (SGOT) change from baseline <−5%, percent of patients (week 20): (50.0%); AST (SGOT) change from baseline >5%, number of patients (week 20): 9; AST (SGOT) change from baseline >5%, percent of patients (week 20): (28.1%); AST (SGOT) change from baseline −5% <= and <=5%, number of patients (week 20): 3; AST (SGOT) change from baseline −5% <= and <=5%, percent of patients (week 20): (9.4%); TOTAL BILIRUBIN change from baseline <−5%, number of patients (week 20): 14; TOTAL BILIRUBIN change from baseline <−5%, percent of patients (week 20): (43.8%); TOTAL BILIRUBIN change from baseline >5%, number of patients (week 20): 9; TOTAL BILIRUBIN change from baseline >5%, percent of patients (week 20): (28.1%); TOTAL BILIRUBIN change from baseline −5% <= and <=5%, number of patients (week 20): 6; TOTAL BILIRUBIN change from baseline −5% <= and <=5%, percent of patients (week 20): (18.8%); ALKALINE PHOSPHATASE change from baseline <−5%, number of patients (week 24): 20; ALKALINE PHOSPHATASE change from baseline <−5%, percent of patients (week 24): (62.5%); ALKALINE PHOSPHATASE change from baseline >5%, number of patients (week 24): 5; ALKALINE PHOSPHATASE change from baseline >5%, percent of patients (week 24): (15.6%); ALKALINE PHOSPHATASE change from baseline −5% <= and <=5%, number of patients (week 24): 4; ALKALINE PHOSPHATASE change from baseline −5% <= and <=5%, percent of patients (week 24): (12.5%); ALT (SGPT) change from baseline <−5%, number of patients (week 24): 18; ALT (SGPT) change from baseline <−5%, percent of patients (week 24): (56.3%); ALT (SGPT) change from baseline >5%, number of patients (week 24): 11; ALT (SGPT) change from baseline >5%, percent of patients (week 24): (34.4%); ALT (SGPT) change from baseline −5% <= and <=5%, number of patients (week 24): 0; ALT (SGPT) change from baseline −5% <= and <=5%, percent of patients (week 24): (0.0%); AST (SGOT) change from baseline <−5%, number of patients (week 24): 15; AST (SGOT) change from baseline <−5%, percent of patients (week 24): (46.9%); AST (SGOT) change from baseline >5%, number of patients (week 24): 11; AST (SGOT) change from baseline >5%, percent of patients (week 24): (34.4%); AST (SGOT) change from baseline −5% <= and <=5%, number of patients (week 24): 3; AST (SGOT) change from baseline −5% <= and <=5%, percent of patients (week 24): (9.4%); TOTAL BILIRUBIN change from baseline <−5%, number of patients (week 24): 11; TOTAL BILIRUBIN change from baseline <−5%, percent of patients (week 24): (34.4%); TOTAL BILIRUBIN change from baseline >5%, number of patients (week 24): 10; TOTAL BILIRUBIN change from baseline >5%, percent of patients (week 24): (31.3%); TOTAL BILIRUBIN change from baseline −5% <= and <=5%, number of patients (week 24): 6; TOTAL BILIRUBIN change from baseline −5% <= and <=5%, percent of patients (week 24): (18.8%); fraction of individuals with a decrease of more than 5% in ALT vs placebo (beginning at 4 weeks after the commencement of treatment): greater fraction of individuals experiencing a decrease of more than 5%; ALT and AST change from baseline in patients with abnormal baseline values (FIGS. 5 and 7) (compared to baseline and compared to placebo): statistically significant improvements; average level of ALP relative to baseline (FIG. 4) (groups receiving teduglutide): decreased relative to baseline for the entire period of the study; percent of individuals with an increase of greater than 5% in ALP or ALT vs placebo (groups receiving teduglutide): effective prophylactic against increases in biomarkers associated with liver dysfunction; individuals experiencing a decrease in ALP greater than 5% from baseline (groups receiving teduglutide, within 4 weeks of the beginning of treatment): roughly 60%; average decrease in level of ALT compared to baseline (FIG. 1) (groups receiving teduglutide, maintained for the entire duration of the study): about 10 U/L
